Some results are limits rather than exact numbers.

The test deals with HCV RdRp (NS5B) (UniProt P26663). The format is biochemical, hepatitis C virus.
HCV RdRp (NS5B), sequence (P26663 whole entry, looked up): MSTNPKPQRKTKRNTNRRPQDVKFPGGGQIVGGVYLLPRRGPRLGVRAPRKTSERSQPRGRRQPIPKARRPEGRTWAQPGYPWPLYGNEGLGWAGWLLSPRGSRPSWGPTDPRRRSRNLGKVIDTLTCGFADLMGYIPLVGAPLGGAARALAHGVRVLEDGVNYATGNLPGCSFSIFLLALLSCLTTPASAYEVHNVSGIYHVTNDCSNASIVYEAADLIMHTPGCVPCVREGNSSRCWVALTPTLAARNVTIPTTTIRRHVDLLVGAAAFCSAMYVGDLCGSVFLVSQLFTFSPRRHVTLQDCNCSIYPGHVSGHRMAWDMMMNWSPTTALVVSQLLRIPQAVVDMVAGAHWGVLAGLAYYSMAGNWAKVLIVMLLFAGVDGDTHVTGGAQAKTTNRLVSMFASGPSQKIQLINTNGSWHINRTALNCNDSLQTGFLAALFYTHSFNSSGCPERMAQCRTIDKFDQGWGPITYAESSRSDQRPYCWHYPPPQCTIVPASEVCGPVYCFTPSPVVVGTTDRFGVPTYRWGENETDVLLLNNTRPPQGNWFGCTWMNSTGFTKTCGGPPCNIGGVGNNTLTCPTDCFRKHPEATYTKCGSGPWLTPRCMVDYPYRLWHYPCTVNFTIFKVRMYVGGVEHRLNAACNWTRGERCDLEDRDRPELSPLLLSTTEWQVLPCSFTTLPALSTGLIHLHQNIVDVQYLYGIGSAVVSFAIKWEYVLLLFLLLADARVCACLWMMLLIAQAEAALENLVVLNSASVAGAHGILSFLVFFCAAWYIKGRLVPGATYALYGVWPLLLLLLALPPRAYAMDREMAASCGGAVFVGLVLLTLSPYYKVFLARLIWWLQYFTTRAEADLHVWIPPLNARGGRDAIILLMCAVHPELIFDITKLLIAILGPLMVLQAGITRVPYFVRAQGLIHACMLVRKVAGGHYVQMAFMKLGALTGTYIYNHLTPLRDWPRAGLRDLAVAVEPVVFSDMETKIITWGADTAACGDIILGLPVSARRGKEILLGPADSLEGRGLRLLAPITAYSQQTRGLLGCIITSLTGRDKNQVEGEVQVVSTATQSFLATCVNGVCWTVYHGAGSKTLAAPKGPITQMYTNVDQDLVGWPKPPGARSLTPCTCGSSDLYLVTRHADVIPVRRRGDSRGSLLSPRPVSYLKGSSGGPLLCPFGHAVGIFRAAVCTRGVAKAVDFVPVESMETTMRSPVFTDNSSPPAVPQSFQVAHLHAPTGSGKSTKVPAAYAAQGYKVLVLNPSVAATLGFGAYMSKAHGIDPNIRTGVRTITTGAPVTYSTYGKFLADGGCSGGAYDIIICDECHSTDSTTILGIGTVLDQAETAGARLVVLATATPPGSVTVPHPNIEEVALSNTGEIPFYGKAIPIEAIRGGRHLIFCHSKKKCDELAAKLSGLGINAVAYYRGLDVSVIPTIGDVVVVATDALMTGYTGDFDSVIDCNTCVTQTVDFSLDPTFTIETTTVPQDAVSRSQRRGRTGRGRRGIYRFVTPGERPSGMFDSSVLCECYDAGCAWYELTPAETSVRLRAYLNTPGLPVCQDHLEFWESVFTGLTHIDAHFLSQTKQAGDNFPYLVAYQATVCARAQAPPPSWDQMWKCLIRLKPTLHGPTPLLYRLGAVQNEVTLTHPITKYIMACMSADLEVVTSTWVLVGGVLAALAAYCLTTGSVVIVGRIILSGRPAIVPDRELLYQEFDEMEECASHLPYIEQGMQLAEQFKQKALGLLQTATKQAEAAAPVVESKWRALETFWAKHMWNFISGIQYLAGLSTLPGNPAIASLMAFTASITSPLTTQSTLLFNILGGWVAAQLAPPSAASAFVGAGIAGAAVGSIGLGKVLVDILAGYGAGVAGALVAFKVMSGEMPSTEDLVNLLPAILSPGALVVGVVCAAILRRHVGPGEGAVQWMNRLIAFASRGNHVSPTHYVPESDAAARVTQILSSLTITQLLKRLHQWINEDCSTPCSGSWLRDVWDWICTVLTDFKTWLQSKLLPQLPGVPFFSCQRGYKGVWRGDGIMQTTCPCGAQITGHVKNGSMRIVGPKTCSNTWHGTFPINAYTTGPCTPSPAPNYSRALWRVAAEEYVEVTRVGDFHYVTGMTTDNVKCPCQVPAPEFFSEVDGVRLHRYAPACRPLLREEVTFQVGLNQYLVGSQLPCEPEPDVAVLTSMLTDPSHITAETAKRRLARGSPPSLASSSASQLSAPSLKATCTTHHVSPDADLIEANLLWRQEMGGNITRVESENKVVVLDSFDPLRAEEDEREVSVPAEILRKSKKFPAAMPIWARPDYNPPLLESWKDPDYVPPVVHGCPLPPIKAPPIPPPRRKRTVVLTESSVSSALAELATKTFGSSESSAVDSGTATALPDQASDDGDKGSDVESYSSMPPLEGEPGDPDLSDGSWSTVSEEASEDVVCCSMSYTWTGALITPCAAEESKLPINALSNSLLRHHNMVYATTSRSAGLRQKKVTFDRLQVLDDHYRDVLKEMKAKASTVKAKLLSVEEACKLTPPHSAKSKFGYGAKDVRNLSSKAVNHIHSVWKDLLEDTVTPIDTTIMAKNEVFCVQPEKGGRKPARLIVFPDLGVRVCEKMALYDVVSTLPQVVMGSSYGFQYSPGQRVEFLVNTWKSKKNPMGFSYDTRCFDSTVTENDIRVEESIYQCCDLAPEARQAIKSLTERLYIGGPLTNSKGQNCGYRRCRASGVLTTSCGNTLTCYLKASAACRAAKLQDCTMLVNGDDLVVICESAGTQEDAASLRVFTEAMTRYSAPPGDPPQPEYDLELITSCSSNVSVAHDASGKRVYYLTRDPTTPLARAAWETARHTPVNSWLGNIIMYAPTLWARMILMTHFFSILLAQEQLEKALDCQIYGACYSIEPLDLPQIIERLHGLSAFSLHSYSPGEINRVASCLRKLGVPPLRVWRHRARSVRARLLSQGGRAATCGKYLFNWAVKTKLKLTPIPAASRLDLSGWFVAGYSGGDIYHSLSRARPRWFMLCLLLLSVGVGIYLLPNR
What is called IC50 is the concentration that inhibits the measured activity by half. A lower IC50 goes with greater potency. The compound `Cc1ccc(NC(=O)C(CCCCN)NC(=O)c2ccc3c4c(cccc24)CC3)cc1` [Compound 67, (S)-ACENAPHTHENE-5-CARBOXYLIC ACID (5-AMINO-1-P-TOLYLCARBAMOYL-PENTYL)-AMIDE] came in with an IC50 greater than 50 µM. With `Cc1ccc(NC(=O)[C@H](CCCCN)NS(=O)(=O)c2cccc3ccccc23)cc1` [Compound 68, (S)-6-AMINO-2-(NAPHTHALENE-1-SULFONYLAMINO)-HEXANOIC ACID P-TOLYLAMIDE] the figure was greater than 50 µM; with `Cc1ccc(NC(=O)[C@H](CCCCN)NS(=O)(=O)c2ccc3ccccc3c2)cc1` [Compound 69, (S)-6-AMINO-2-(NAPHTHALENE-2-SULFONYLAMINO)-HEXANOIC ACID P-TOLYLAMIDE], greater than 50 µM. `Cc1ccc(NC(=O)C(CCCCN)NS(=O)(=O)c2ccc(-c3ccccc3)cc2)cc1` [Compound 70, (S)-6-AMINO-2-(BIPHENYL-4-SULFONYLAMINO)-HEXANOIC ACID P-TOLYLAMIDE] returned an IC50 greater than 50 µM.

Consider `Cc1ccc(NC(=O)C(CCCCN)NC(=O)Nc2cccc3ccccc23)cc1` [Compound 71, (S)-6-AMINO-2-(3-NAPHTHALEN-1-YL-UREIDO)-HEXANOIC ACID P-TOLYLAMIDE], for which the IC50 was greater than 50 µM. Under `Cc1ccc(NC(=O)C(CCCCN)NC(=O)Nc2ccc3ccccc3c2)cc1` [Compound 72, (S)-6-AMINO-2-(3-NAPHTHALEN-2-YL-UREIDO)-HEXANOIC ACID P-TOLYLAMIDE] stands 10 to 50 µM; under `Cc1ccc(NC(=O)C(CCCCN)NC(=O)Nc2ccccc2-c2ccccc2)cc1` [Compound 73, (S)-6-AMINO-2-(3-BIPHENYL-2-YL-UREIDO)-HEXANOIC ACID P-TOLYLAMIDE], greater than 50 µM; under `Cc1ccc(NC(=O)C(CCCCN)NC(=O)Nc2ccc(Cc3ccccc3)cc2)cc1` [Compound 74, (S)-6-AMINO-2-[3-(4-BENZYL-PHENYL)-UREIDO]-HEXANOIC ACID P-TOLYLAMIDE], 10 to 50 µM. With `Cc1ccc(NC(=O)C(CCCCN)NC(=O)Nc2ccc(C(=O)c3ccccc3)cc2)cc1` [Compound 75, (S)-6-AMINO-2-[3-(4-BENZOYL-PHENYL)-UREIDO]-HEXANOIC ACID P-TOLYLAMIDE] the figure was greater than 50 µM; with `Cc1ccc(NC(=O)C(CCCCN)NC(=O)NCCc2ccc(-c3ccccc3)cc2)cc1` [Compound 76, (S)-6-AMINO-2-[3-(2-BIPHENYL-4-YL-ETHYL)-UREIDO]-HEXANOIC ACID P-TOLYLAMIDE], 10 to 50 µM. With `Cc1ccc(NC(=O)C(CCCCN)NC(=O)C(N)Cc2cccc3ccccc23)cc1` [Compound 77, (S)-6-AMINO-2-(2-(S)-AMINO-3-NAPHTHALEN-1-YL-PROPIONYLAMINO)-HEXANOIC ACID P-TOLYLAMIDE] the figure was greater than 50 µM; with `Cc1ccc(NC(=O)[C@H](CCCCN)NC(=O)Nc2cccc3c2CCCC3)cc1` [Compound 78, (S)-6-AMINO-2-[3-(5,6,7,8-TETRAHYDRO-NAPHTHALEN-1-YL)-UREIDO]-HEXANOIC ACID P-TOLYLAMIDE], greater than 50 µM. `Cc1ccc(NC(=O)C(CCCCN)NC(=O)c2cccc3ccccc23)cc1` (stereo not shown) [Compound 79, NAPHTHALENE-1-CARBOXYLIC ACID (5-AMINO-1-P-TOLYLCARBAMOYL-PENTYL)-AMIDE] showed an IC50 greater than 50 µM. As to `NCCCC[C@H](NC(=O)OCC1c2ccccc2-c2ccccc21)C(=O)Nc1cccc(F)c1` [Compound 80, (S)-[5-AMINO-1-(3-FLUORO-PHENYLCARBAMOYL)-PENTYL]-CARBAMIC ACID 9H-FLUOREN-9-YLMETHYL ESTER], the IC50 is greater than 50 µM. Under `NCCCC[C@H](NC(=O)OCC1c2ccccc2-c2ccccc21)C(=O)Nc1ccc2c(c1)CCC2` [Compound 81, (S)-[5-AMINO-1-(INDAN-5-YLCARBAMOYL)-PENTYL]-CARBAMIC ACID 9H-FLUOREN-9-YLMETHYL ESTER] stands 10 to 50 µM. With `NCCCC[C@H](NC(=O)OCC1c2ccccc2-c2ccccc21)C(=O)Nc1ccc2[nH]ncc2c1` [Compound 82, (S)-[5-AMINO-1-(1H-INDAZOL-5-YLCARBAMOYL)-PENTYL]-CARBAMIC ACID 9H-FLUOREN-9-YLMETHYL ESTER] the figure was greater than 50 µM.

`COc1ccc(NC(=O)[C@H](CCCCN)NC(=O)OCC2c3ccccc3-c3ccccc32)cc1` [Compound 83, (S)-[5-AMINO-1-(4-METHOXY-PHENYLCARBAMOYL)-PENTYL]-CARBAMIC ACID 9H-FLUOREN-9-YLMETHYL ESTER] had an IC50 of 10 to 50 µM.

For the compound `Cc1ccc(NC(=O)C(N)CNC(=O)OCC2c3ccccc3-c3ccccc32)cc1` [Compound 84, (R)-(2-AMINO-2-P-TOLYLCARBAMOYL-ETHYL)-CARBAMIC ACID 9H-FLUOREN-9-YLMETHYL ESTER], the IC50 is greater than 50 µM. `Cc1ccc(NC(=O)C2CCCN2C(=O)OCC2c3ccccc3-c3ccccc32)cc1` [Compound 85, (S)-2-P-TOLYLCARBAMOYL-PYRROLIDINE-1-CARBOXYLIC ACID 9H-FLUOREN-9-YLMETHYL ESTER] had an IC50 greater than 50 µM. Under `Cc1ccc(NC(=O)C2CCCN2C(=O)OCC2c3ccccc3-c3ccccc32)cc1` [Compound 86, (R)-2-P-TOLYLCARBAMOYL-PYRROLIDINE-1-CARBOXYLIC ACID 9H-FLUOREN-9-YLMETHYL ESTER] stands greater than 50 µM.

`Cc1ccc(NC(=O)C2CC(O)CN2C(=O)OCC2c3ccccc3-c3ccccc32)cc1` [Compound 87, (4R,S)-4-HYDROXY-2-P-TOLYLCARBAMOYL-PYRROLIDINE-1-CARBOXYLIC ACID 9H-FLUOREN-9-YLMETHYL ESTER] returned an IC50 greater than 50 µM. Under `NCCCC[C@H](NC(=O)Cn1cnc2c(NC(=O)c3ccccc3)ncnc21)C(=O)N(Cc1ccccc1)C1CCCCC1` [Compound 88, (S)-N-(9-{[5-AMINO-1-(BENZYL-CYCLOHEXYL-CARBAMOYL)-PENTYLCARBAMOYL]-METHYL}-9H-PURIN-6-YL)-BENZAMIDE] stands greater than 50 µM; under `Cc1ccc(NC(=O)C(CCCCN)NC(=O)CCc2c[nH]c3ccccc23)cc1` [Compound 89, (S)-6-AMINO-2-(3-1H-INDOL-3-YL-PROPIONYLAMINO)-HEXANOIC ACID P-TOLYLAMIDE], greater than 50 µM; under `CNC(Cc1c[nH]c2ccccc12)C(=O)NC(CCCCN)C(=O)Nc1ccc(C)cc1` [Compound 90, (S)-6-AMINO-2-[3-(1H-INDOL-3-YL)-2-(S)-METHYLAMINO-PROPIONYLAMINO]-HEXANOIC ACID P-TOLYLAMIDE], greater than 50 µM.

The compound `Cc1ccc(NC(=O)C(CCCCN)NC(=O)Cc2cccc3ccccc23)cc1` [Compound 91, (S)-6-AMINO-2-(2-NAPHTHALEN-1-YL-ACETYLAMINO)-HEXANOIC ACID P-TOLYLAMIDE] had an IC50 greater than 50 µM. Under `Cc1ccc(N(C)C(=O)C(CCCCN)NC(=O)OCC2c3ccccc3-c3ccccc32)cc1` [Compound 92, (S)-[5-AMINO-1-(METHYL-P-TOLYL-CARBAMOYL)-PENTYL]-CARBAMIC ACID 9H-FLUOREN-9-YLMETHYL ESTER] stands greater than 50 µM; under `COc1ccc(-c2ccccc2)cc1NC(=O)NC(CCCCN)C(=O)Nc1ccc(C)cc1` [Compound 93, (S)-6-AMINO-2-[3-(4-METHOXY-BIPHENYL-3-YL)-UREIDO]-HEXANOIC ACID P-TOLYLAMIDE], greater than 50 µM; under `Cc1ccc(NC(=O)C(CCCCN)NC(=O)Nc2cc(C(F)(F)F)cc(C(F)(F)F)c2)cc1` [Compound 95, (S)-6-AMINO-2-[3-(3,5-BIS-TRIFLUOROMETHYL-PHENYL)-UREIDO]-HEXANOIC ACID P-TOLYLAMIDE], 10 to 50 µM.

These data come from patent publication US20070021434A1, “NON-NUCLEOSIDE ANTI-HEPACIVIRUS AGENTS AND USES THEREOF” (Migenix Inc., priority 2005, published 2007).
